# System: gentamicin resistant Escherichia coli
# Experiment: Rat sepsis model, mortality vs. saline control (Example 15)
# Assay type: in vivo, Wistar rats
# Settings: Gentamicin 2 mg, gel 2 ml I.M., 24 hours before challenge, Group D mixture, timing not given
# Procedure: The model system utilizes Wistar rats surgically implanted with an inoculum of intestinal contents from other rats. The inoculum is prepared in a manner which simulates the microbiologic parameters of the human colon. This is accomplished by placing rats on a diet of lean ground beef for two weeks, and then harvesting, homogenizing and freezing aliquots of prepared intestinal contents for subsequent use. The clinical end points for evaluation in this model are mortality, while microbiologic end points include blood and peritoneal cultures. The general experimental design and methods are as follows.
# Male, Wistar, virus antibody free (VAF) rats (Charles River Laboratories, Wilmington, Mass.), weighing 175-200 grams, are utilized for all experiments. All animals are housed, five per cage, within a VAF facility, and given food and water ad libitum, except for those animals used for preparation of the meat-fed cecal inoculum (see below). Animal experiments are carried out according to the guidelines of the Harvard Medical Area Standing Committee on Animals, in facilities accredited by the American Association for the Accreditation of Laboratory Animal Care.
# The innoculum for this study is prepared as described in A. Onderdonk et al., Experimental intra-abdominal abscesses in rats; quantitative bacteriology of infected animals. Infection and Immunity, 10:1256-9 (1974); and A. Onderdonk et al., Experimental intra-abdominal abscesses in rats: development of animal model. Infection and Immunity, 10:1256-1259 (1974). Briefly, cecal contents from meat-fed rats are combined with peptone-yeast-glucose broth to form a slurry. This slurry is filtered through gauze to remove large particulate material, aliquoted and frozen at −80° C. until used. Preliminary testing of this inoculum is performed to determine the proper dilution of the inoculum to yield a mortality of 60%-70% in an untreated group.
# Animals are anesthetized with Nembutal (50 mg/Kg), and prepared for surgical implantation of the inoculum by shaving the abdomen and applying an iodine solution. A 3-4 cm midline incision is made through the skin and anterior abdominal wall, and a gelatin capsule containing 0.5 mL of the inoculum is inserted into the pelvic region. The incision is closed with one 3-0 suture, and the animals are observed four times per day for the first 48 hours, and every eight hours thereafter. Visibly moribund animals are humanely sacrificed with CO2.
# Groups of twenty animals each are implanted with the inoculum described above. For each experiment, a control group of sham-treated animals is employed. For experiments in which quantitative blood and peritoneal cultures are obtained, sufficient additional animals are implanted to allow for such cultures, but mortality in these groups is not included in the clinical outcome calculations, due to the additional manipulation of the animals. Surviving animals from each group are sacrificed after seven days.
# A comparison of groups with regard to mortality is made by chi-square analysis as supplied on commercially available statistical software (Instat, GraphPad Software, San Diego, Calif.). A comparison group mean bacterial count is made using Student's T test.
# Animals were divided into Groups A, B, C and D, with each Group containing 15 animals. All groups were challenged with 2.629 ml gentamicin resistant Escherichia coli, 0.32 ml Dextran Sulfate, and 29.051 ml Peptone Yeast Glucose. Group A was treated 2 hours after challenge, while Groups B and C were treated 24 hours before challenge. Group A was treated with 2 ml saline I.M.; Group B was treated with 2 mg Gentamicin; Group C was treated with 2 ml HA/CMC/EDC gel I.M.; and Group D was treated with a mixture of Gentamicin and HA/CMC/EDC gel.
# The animals were held for 48 hours, and assessed for mortality vs. the saline control.
substance,measurement,setting,value
Gentamicin,% mortality,24 hr,23.1%
same,mortalities (M),24 hr,3
same,surviving animals (A),24 hr,10
same,% mortality,48 hr,38.5%
same,mortalities (M),48 hr,2
same,surviving animals (A),48 hr,8
same,% mortality,Total,38.5%
same,mortalities (M),Total,5
same,surviving animals (A),Total,8

# Reference: patent US7456220B2, “Immunodulatory compositions and methods of use thereof” (priority 1999, dated 2008)
